Eight compounds from PubChem BioAssay (NCI) can be followed below.

Some test systems named below: A498 renal; HCC-2998 colon; HT29 colon; MDA-MB-231 breast; NCI-H460 lung; OVCAR-4 ovarian; OVCAR-5 ovarian; OVCAR-8 ovarian; RXF 393 renal; U251 CNS.
Holding throughout (test): NCI anticancer screen, dose series, 48 h

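These data come from cells grown in 96-well plates and exposed to compound for 48 hours at five concentrations. GI50 is the concentration that inhibits growth by half. TGI: concentration producing complete growth inhibition.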 A value given as a limit tells only on which side of the number the result lay.

For `O=C1c2ccccc2C(=O)N1c1ccc(S(=O)(=O)Nc2ncccn2)cc1`, the GI50 with A498 renal is above 100 µM; in the assay with HCC-2998 colon, 22.7 µM; with HT29 colon, above 100 µM; with MDA-MB-231 breast it was above 100 µM; with NCI-H460 lung, above 100 µM; in the assay on OVCAR-4 ovarian, above 100 µM. Further, the GI50 in the assay on OVCAR-5 ovarian, in the assay with OVCAR-8 ovarian, with RXF 393 renal and in the assay with U251 CNS was above 100 µM each time. Besides, the TGI in the assay on A498 renal, in the assay with HCC-2998 colon, in the assay with HT29 colon, in the assay on MDA-MB-231 breast, in the assay on NCI-H460 lung and with OVCAR-4 ovarian was above 100 µM each time. Also, the TGI with OVCAR-5 ovarian, with OVCAR-8 ovarian, with RXF 393 renal and in the assay on U251 CNS was above 100 µM throughout.

On to `COc1ccc2[nH]cc(-c3nc(-c4cn(C)c5ccncc45)cs3)c2c1`, for which the GI50 is 8.86 µM with A498 renal; 1.88 µM in the assay with HCC-2998 colon; 1.53 µM in the assay with HT29 colon; 1.87 µM in the assay on MDA-MB-231 breast; 1.97 µM with NCI-H460 lung; 2.14 µM in the assay with OVCAR-4 ovarian. The GI50 is 2 µM with OVCAR-5 ovarian, 2.19 µM with OVCAR-8 ovarian, 1.83 µM in the assay on RXF 393 renal and 1.91 µM with U251 CNS. Moreover, the TGI with A498 renal is 21.5 µM; in the assay with HCC-2998 colon, 3.42 µM; with HT29 colon, 3.33 µM; in the assay with MDA-MB-231 breast it was 3.4 µM; in the assay on NCI-H460 lung, 3.67 µM; in the assay on OVCAR-4 ovarian it was 4.51 µM. Further, the TGI in the assay with OVCAR-5 ovarian turned out to be 3.6 µM; with OVCAR-8 ovarian, 4.94 µM; in the assay with RXF 393 renal, 3.34 µM; in the assay with U251 CNS it was 3.42 µM.

For `C#C[C@]1(O)CC[C@H]2[C@@H]3CC=C4c5sc(N=C(N)N)nc5CC[C@]4(C)[C@H]3CC[C@@]21C`, the GI50 with A498 renal is 0.274 µM; with HCC-2998 colon, 1.59 µM; in the assay on HT29 colon it was 0.361 µM; in the assay with MDA-MB-231 breast it was 1.14 µM; in the assay on NCI-H460 lung it was 1.05 µM; in the assay with OVCAR-4 ovarian, 1.33 µM. Also, the GI50 in the assay with OVCAR-5 ovarian was 1.33 µM; in the assay with OVCAR-8 ovarian it was 1.63 µM; in the assay with RXF 393 renal, 0.141 µM; with U251 CNS, 0.388 µM. The TGI with A498 renal was 1.02 µM; in the assay with HCC-2998 colon, 3.1 µM; in the assay with HT29 colon it was 1.69 µM; with MDA-MB-231 breast, 2.66 µM; with NCI-H460 lung it was 2.5 µM; in the assay on OVCAR-4 ovarian, 2.75 µM. Moreover, the TGI came out at 2.65 µM in the assay with OVCAR-5 ovarian, 4.53 µM in the assay with OVCAR-8 ovarian, 0.555 µM with RXF 393 renal and 1.85 µM in the assay on U251 CNS.

With `COc1cc(-c2[nH]ccc2Cl)oc1C1=C2N=C3C=C2C(C(C)C)C1CCCCCCCC3` (stereo not given), the TGI in the assay with A498 renal was determined as 5.31 µM; in the assay with HCC-2998 colon, 1.77 µM; with HT29 colon, 1.11 µM; in the assay on MDA-MB-231 breast it was 1.56 µM; with NCI-H460 lung, 1.53 µM; in the assay with OVCAR-4 ovarian, 2.48 µM. Further, the TGI is 2.05 µM in the assay with OVCAR-5 ovarian, 1.83 µM in the assay with OVCAR-8 ovarian, 2.42 µM in the assay with RXF 393 renal and 1.89 µM in the assay with U251 CNS.

In the case of `CCC(Sc1nnc2c3ccccc3n(CC)c2n1)C(=O)Nc1ccccc1OC` (stereo not given), the GI50 in the assay on A498 renal was 2.2 µM; in the assay with HCC-2998 colon it was above 100 µM; in the assay on HT29 colon, above 100 µM; with MDA-MB-231 breast, 52.5 µM; with NCI-H460 lung, above 100 µM; in the assay on OVCAR-4 ovarian, above 75.7 µM. The GI50 is 1.94 µM with OVCAR-5 ovarian, above 100 µM with OVCAR-8 ovarian, 64 µM with RXF 393 renal and above 100 µM in the assay on U251 CNS. The TGI with A498 renal is 6.77 µM; in the assay with HCC-2998 colon it was above 100 µM; with HT29 colon, above 100 µM; in the assay on MDA-MB-231 breast it was above 100 µM; in the assay on NCI-H460 lung, above 100 µM; with OVCAR-4 ovarian, above 100 µM. Also, the TGI is 11.7 µM with OVCAR-5 ovarian, above 100 µM in the assay with OVCAR-8 ovarian, above 100 µM in the assay with RXF 393 renal and above 100 µM with U251 CNS.

On to `O=C(Nc1ccc(Br)cc1)Nc1n[nH]c2ccccc12`, for which the GI50 was above 100 µM with A498 renal; above 100 µM in the assay with HCC-2998 colon; above 100 µM with HT29 colon; above 50.3 µM with MDA-MB-231 breast; 11.7 µM in the assay on NCI-H460 lung; 56.7 µM with OVCAR-4 ovarian. In addition, the GI50 in the assay with OVCAR-5 ovarian is above 100 µM; in the assay with OVCAR-8 ovarian it was 71.2 µM; with RXF 393 renal, above 62.8 µM; with U251 CNS, above 91.2 µM. The TGI in the assay with A498 renal, in the assay on HCC-2998 colon, in the assay on HT29 colon, in the assay on MDA-MB-231 breast, in the assay with NCI-H460 lung and with OVCAR-4 ovarian was above 100 µM each time. In addition, the TGI in the assay with OVCAR-5 ovarian, with OVCAR-8 ovarian, in the assay on RXF 393 renal and in the assay with U251 CNS was above 100 µM throughout.

As to `N#Cc1ccccc1C#C/C=C\C#Cc1ccc(OCCCNC(=O)c2cc3ccccc3[nH]2)cc1`, the GI50 in the assay with A498 renal was 16.1 µM; in the assay on HCC-2998 colon, 74.9 µM; with HT29 colon, 30.9 µM; in the assay on MDA-MB-231 breast, 13.3 µM; in the assay on NCI-H460 lung it was 33.9 µM; with OVCAR-4 ovarian it was 59 µM. Besides, the GI50 in the assay on OVCAR-5 ovarian was 21.3 µM; with OVCAR-8 ovarian, 16.2 µM; with RXF 393 renal, 21.4 µM; in the assay with U251 CNS, 10.7 µM. Moreover, the TGI was 36.5 µM with A498 renal; above 100 µM in the assay with HCC-2998 colon; above 100 µM with HT29 colon; 28.1 µM in the assay on MDA-MB-231 breast; above 100 µM with NCI-H460 lung; above 100 µM in the assay on OVCAR-4 ovarian. The TGI in the assay on OVCAR-5 ovarian was found to be 48.4 µM; in the assay on OVCAR-8 ovarian, 36.9 µM; in the assay with RXF 393 renal, 52.2 µM; in the assay on U251 CNS, 22.5 µM.

In the case of `O=C1OC(c2ccc(O)c(-c3ccccc3)c2)(c2ccc(O)c(-c3ccccc3)c2)c2c(Cl)c(Cl)c(Cl)c(Cl)c21`, the TGI in the assay with A498 renal, in the assay on HCC-2998 colon, in the assay on HT29 colon, in the assay with MDA-MB-231 breast, with NCI-H460 lung and in the assay with OVCAR-4 ovarian was above 100 µM throughout. In addition, the TGI with OVCAR-5 ovarian, in the assay with OVCAR-8 ovarian, with RXF 393 renal and with U251 CNS was above 100 µM each time.
